Results published in US20200360391A1, “Medicinal Composition for Treating Intractable Heart Disease” (Osaka University, priority 2016, published 2020).
“Also recorded” adds a separate entry of the source. Counter-ions that a name gives are not always drawn.

Legend:
[1] = system: rat coronary artery complete ischemia model; test: Model of ischemia (MI) by rat coronary artery complete ligation (Tests 1 and 2): echocardiography, body weight; conditions: for value of change in E.F. compared with E.F. on Day 1 / value of change in F.S. compared with F.S. on Day 1: B-MS 100, C-MS 50, F-MS 30 mg/kg s.c. single injection
[2] = system: spontaneous dilated cardiomyopathy (J2N-k) hamster model; test: Spontaneous dilated cardiomyopathy (J2N-k) hamster model, 8-week administration from 20 weeks of age (Tests 1-3): echocardiography, body weight; conditions: for LVIDs 8 W: hydrochloride hydrate
Procedure, shortened: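 Male J2N-k δ-glycan-deficient hamsters (delivered at 18 weeks; 2-week acclimation) were dosed by oral gavage twice daily for 8 weeks in 0.5% CMC-Na (G in distilled water; 5 mL/kg) at human-equivalent doses, e.g. cilostazol 1.7 mg/kg. Camostat PLGA preparation was given 10 mg/kg s.c. every 4 weeks. Echocardiographic EF/FS changes from baseline were assessed at 4 and 8 weeks versus vehicle.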

rats [3] = conditions: subcutaneous administration in rats; cited from earlier work
[4] = system: spontaneous dilated cardiomyopathy J2N-k baby hamsters; test: J2N-k baby hamsters (Test 4): administration alone or in combination, echocardiography, body weight; format: in vivo, hamster; conditions: for % FS / EF (%) / value of change in E.F. compared with E.F. at 0 W / value of change in F.S. compared with F.S. at 0 W: Test 4, dose O 0.17, C 3.3, E 15, orally twice daily, mean ± S.D.
Method: δ-Glycan-deficient spontaneous dilated cardiomyopathy (J2N-k) male hamsters (Japan SLC, Inc.) were delivered at 4 weeks of age. After a 1-week quarantine/acclimation, echocardiography was performed. The hamsters were grouped by stratified random assignment based on the EF values and the body weights so that each administration group was equalized.
Each test substance was individually administered twice daily (at an interval of 8 hours or more) by oral gavage, and echocardiography was performed 4 and 8 weeks after the start of administration (before dissection). Differences from the value before the start of administration (at the time of grouping) (amount of change: A) in each group were examined, and the cardiac function (EF value, FS %, etc.) was compared with that in the vehicle group (Group 1).
The doses were set according to the dose-setting basis in Test 3, and similarly orally administered twice daily. Effects of administration of combinations of two or three of carvedilol, which is a β-blocker widely used clinically, and ozagrel and/or pirfenidone were examined.

[5] = cited from earlier work
rats [6] = conditions: cited from earlier work
[7] = MI Test 1, NOAEL doses, 7 Day, mean ± S.D.
[8] = MI Test 1, NOAEL doses, 14 Day, mean ± S.D.
[9] = MI Test 1, NOAEL doses, 29 Day, mean ± S.D.
[10] = MI Test 2, 14 Day, B 150, G 5, I 30, C 10 mg/kg p.o. b.i.d., mean ± S.D.
[11] = MI Test 2, 29 Day, B 150, G 5, I 30, C 10 mg/kg p.o. b.i.d., mean ± S.D.

O=C(O)/C=C/c1ccc(Cn2ccnc2)cc1 [Compound C, Ozagrel hydrochloride hydrate]
Action on left ventricular systolic function ([1]; MI Test 1, 28-day repeated oral administration b.i.d., NOAEL-based doses): suppression action on the deterioration of left ventricular systolic function | Body weight ([1]; MI Test 1, NOAEL doses, 1 Day (grouping), mean ± S.D.): 234.8 ± 8.3 g | % FS: value of change compared with the value on Day 1 [1, 7]: 0% | Body weight [1, 7]: 240.0 ± 9.3 g | EF: value of change compared with the value on Day 1 [1, 7]: -1% | % FS: value of change compared with the value on Day 1 [1, 8]: -1% | Body weight [1, 8]: 261.2 ± 10.8 g | EF: value of change compared with the value on Day 1 [1, 8]: -2% | Body weight ([1]; MI Test 1, NOAEL doses, 21 Day, mean ± S.D.): 278.9 ± 12.5 g | % FS: value of change compared with the value on Day 1 [1, 9]: -3% | Body weight [1, 9]: 299.8 ± 13.9 g | EF: value of change compared with the value on Day 1 [1, 9]: -5% | EF actual measured value and/or amount of change compared with control ([1]; MI Test 2, Day 14 and Day 29): significantly higher | Values of cardiac function (EF, FS %) compared with control ([1]; MI Test 2, oral b.i.d. 4 weeks or single subcutaneous administration): significantly higher | Body weight ([1]; MI Test 2, 1 Day, B 150, G 5, I 30, C 10 mg/kg p.o. b.i.d., B MS 100, C MS 50, I MS 30 mg/kg s.c. single injection, mean): 240.1 g | Body weight ([1]; MI Test 2, 7 Day, B 150, G 5, I 30, C 10 mg/kg p.o. b.i.d., B MS 100, C MS 50, I MS 30 mg/kg s.c. single injection, mean): 245.7 g | Body weight ([1]; MI Test 2, 14 Day, B 150, G 5, I 30, C 10 mg/kg p.o. b.i.d., B MS 100, C MS 50, I MS 30 mg/kg s.c. single injection, mean): 273.3 g | value of change in E.F. compared with E.F. on Day 1 [1, 10]: <−4.9 ± 2.3> % | value of change in F.S. compared with F.S. on Day 1 [1, 10]: <−2.7 ± 1.3> % | Body weight ([1]; MI Test 2, 21 Day, B 150, G 5, I 30, C 10 mg/kg p.o. b.i.d., B MS 100, C MS 50, I MS 30 mg/kg s.c. single injection, mean): 292.8 g | Body weight ([1]; MI Test 2, 29 Day, B 150, G 5, I 30, C 10 mg/kg p.o. b.i.d., B MS 100, C MS 50, I MS 30 mg/kg s.c. single injection, mean): 310.4 g | value of change in E.F. compared with E.F. on Day 1 [1, 11]: <−10.0 ± 3.9> % | value of change in F.S. compared with F.S. on Day 1 [1, 11]: <−5.3 ± 2.1> % | LVIDd 4 W ([2]; Test 1, p.o. b.i.d.): 7.1 mm | LVIDd 8 W ([2]; Test 1, p.o. b.i.d.): 7.4 mm | LVIDs 4 W ([2]; Test 1, p.o. b.i.d.): 5.9 mm | LVIDs 8 W ([2]; Test 1, p.o. b.i.d.): 6.1 mm | LVIDs 8 W ([2]; Test 1, p.o. b.i.d., listed as ozagrel): significantly lower | Cardiac function (EF, FS %) actual measured value or change rate compared with control, 4 W value ([2]; Test 3, clinical dose): significant cardiac function improvement effect | Cardiac function improvement effect ([2]; Test 3, clinical dose, summary): cardiac function improvement effect was observed | Minimal effective dose (screening 2) ([2]; mg/kg twice per day, oral preparation): 3.3 mg/kg | LD50 (rats [3]): 2049 mg/kg | Action on decrease in left ventricular systolic function ([4]; Test 4, clinical doses p.o. b.i.d., 8 weeks, hydrochloride hydrate): significant suppression action on a decrease in left ventricular systolic function; also recorded: action of significantly suppressing a decrease in left ventricular systolic function | Body weight 3 W ([4]; Test 4, p.o. b.i.d., clinical dose): 85.4 g | % FS ([4]; 0 W (start of administration)): 39.1 ± 2.7% | EF (%) ([4]; 0 W (start of administration)): 77.3 ± 2.9% | % FS ([4]; 4 W): 34.9 ± 1.5% | EF (%) ([4]; 4 W): 72.3 ± 2.0% | value of change in E.F. compared with E.F. at 0 W ([4]; 4 W): <−5.0 ± 1.4> % | value of change in F.S. compared with F.S. at 0 W ([4]; 4 W): <−4.2 ± 1.4> % | % FS ([4]; 8 W): 30.7 ± 2.0% | EF (%) ([4]; 8 W): 66.6 ± 2.8% | value of change in E.F. compared with E.F. at 0 W ([4]; 8 W): <−10.7 ± 2.0> % | value of change in F.S. compared with F.S. at 0 W ([4]; 8 W): <−8.4 ± 1.6> % | Safety at the daily amount ([5]; camostat 600 mg daily, ozagrel 400 mg daily): no safety problems except for slightly prolonged bleeding time | Abdominal / stomach / gastric discomfort cases ([5]; human, in vivo): 0.1% | Bleeding tendency cases ([5]; human, in vivo): 0.1% | Elevated AST (GOT) and/or ALT (GPT) / liver enzyme cases ([5]; human, in vivo): 0.3% | Itching / pruritus cases ([5]; human, in vivo): 0.2% | Nausea cases (cilostazol: nausea/vomiting) ([5]; human, in vivo): 0.3% | Rash cases ([5]; human, in vivo): 0.2% | Cases with side effects (including laboratory test value abnormality) ([5]; share of cases evaluated for safety): 2.0% | No-observed-effect level (rats [6]; rats, 3 months): 150 mg/kg | Dose at which toxic findings were observed (rats [6]; repeated oral administration in rats, duration per compound): ≥ 500 mg/kg
